Measurements from US12084522B2, “Peptides, combination of peptides, and cell based medicaments for use in immunotherapy against urinary bladder cancer and other cancers” (Immatics Biotechnologies GmbH, priority 2016, dated 2024).

What was measured:
[1] = system: CD8+ T cells from healthy HLA-A*02 donors; test: In vitro immunogenicity: priming of CD8+ T cells with aAPCs loaded with peptide/MHC complexes and anti-CD28, pMHC multimer readout; format: cell-based, human; details: HLA-A*02 restricted peptides, positive wells among evaluable, Table 10B
Description: In order to obtain information regarding the immunogenicity of the TUMAPs of the present invention, the inventors performed investigations using an in vitro T-cell priming assay based on repeated stimulations of CD8+ T cells with artificial antigen presenting cells (aAPCs) loaded with peptide/MHC complexes and anti-CD28 antibody.
In order to perform in vitro stimulations by artificial antigen presenting cells loaded with peptide-MHC complex (pMHC) and anti-CD28 antibody, the inventors first isolated CD8+ T cells from fresh HLA-A*02 leukapheresis products via positive selection using CD8 microbeads (Miltenyi Biotec, Bergisch-Gladbach, Germany) of healthy donors obtained from the University clinics Mannheim, Germany, after informed consent.
PBMCs and isolated CD8+ lymphocytes were incubated in T-cell medium (TCM) until use consisting of RPMI-Glutamax (Invitrogen, Karlsruhe, Germany) supplemented with 10% heat inactivated human AB serum (PAN-Biotech, Aidenbach, Germany), 100 U/ml Penicillin/100 μg/ml Streptomycin (Cambrex, Cologne, Germany), 1 mM sodium pyruvate (CC Pro, Oberdorla, Germany), 20 μg/ml Gentamycin (Cambrex). 2.5 ng/ml IL-7 (PromoCell, Heidelberg, Germany) and 10 U/ml IL-2 (Novartis Pharma, Nürnberg, Germany) were also added to the TCM at this step.
Generation of pMHC/anti-CD28 coated beads, T-cell stimulations and readout was performed in a highly defined in vitro system using four different pMHC molecules per stimulation condition and 8 different pMHC molecules per readout condition.
The purified co-stimulatory mouse IgG2a anti human CD28 Ab 9.3 (Jung et al., 1987) was chemically biotinylated using Sulfo-N-hydroxysuccinimidobiotin as recommended by the manufacturer (Perbio, Bonn, Germany). Beads used were 5.6 μm diameter streptavidin coated polystyrene particles (Bangs Laboratories, Illinois, USA).
800.000 beads/200 μl were coated in 96-well plates in the presence of 4×12.5 ng different biotin-pMHC, washed and 600 ng biotin anti-CD28 were added subsequently in a volume of 200 μl. Stimulations were initiated in 96-well plates by co-incubating 1×10^6 CD8+ T cells with 2×10^5 washed coated beads in 200 μl TCM supplemented with 5 ng/ml IL-12 (PromoCell) for 3 days at 37° C. Half of the medium was then exchanged by fresh TCM supplemented with 80 U/ml IL-2 and incubating was continued for 4 days at 37° C. This stimulation cycle was performed for a total of three times. For the pMHC multimer readout using 8 different pMHC molecules per condition, a two-dimensional combinatorial coding approach was used as previously described (Andersen et al., 2012) with minor modifications encompassing coupling to 5 different fluorochromes. Finally, multimeric analyses were performed by staining the cells with Live/dead near IR dye (Invitrogen, Karlsruhe, Germany), CD8-FITC antibody clone SK1 (BD, Heidelberg, Germany) and fluorescent pMHC multimers. For analysis, a BD LSRII SORP cytometer equipped with appropriate lasers and filters was used. Peptide specific cells were calculated as percentage of total CD8+ cells. Evaluation of multimeric analysis was done using the FlowJo software (Tree Star, Oregon, USA). In vitro priming of specific multimer+CD8+ lymphocytes was detected by comparing to negative control stimulations.

HLA-A*02:01 = HLA-A*02:01 (Homo sapiens, UniProt P04439, D140Y/D185E/D98H/E176V/E277Q/G131W/G231S/I119V/I121R/I166T/I218V/L300P/L318F/N151K/N90K/P208A/P217A/Q86G/Q94H/R138H/R169H/T345S); test: MHC binding assay (UV-ligand exchange, β2m ELISA, peptide exchange yield); details: binding to HLA-A*02:01 ranged by peptide exchange yield (UV-ligand exchange, β2m ELISA)

Row | Peptide exchange (HLA-A*02:01) | Substance | Wells positive [%] [1]
1 | ++++ (>75% = ++++) | 126 (SLLRVGWSV; listed as Homo sapiens) [compound 126] | ++ (20%-49% = ++)
2 | ++++ (>75% = ++++) | 24 (SLLGGITVV; listed as Homo sapiens) [compound 24] | ++ (20%-49% = ++)
3 | +++ (>50 = +++) | 53 (ILVQVIPVV; listed as Homo sapiens) [compound 53] | ++ (20%-49% = ++)
4 | +++ (>50 = +++) | 114 (IITKDLFQV; listed as Homo sapiens) [compound 114] | + (<20% = +)
5 | ++++ (>75% = ++++) | 146 (YLARIQGFQV; listed as Homo sapiens) [compound 146] | ++ (20%-49% = ++)
6 | +++ (>50 = +++) | 17 (RLSQLEGVNV; listed as Homo sapiens) [compound 17] | + (<20% = +)
7 | +++ (>50 = +++) | 16 (ILGPQGNTI; listed as Homo sapiens) [compound 16] | + (<20% = +)
8 | ++++ (>75% = ++++) | 10 (GLWHGMFANV; listed as Homo sapiens) [compound 10] | ++ (20%-49% = ++)
9 | ++++ (>75% = ++++) | 59 (WLSTSIPEA; listed as Homo sapiens) [compound 59] | + (<20% = +)
10 | +++ (>50 = +++) | 30 (ILDISRSEV; listed as Homo sapiens) [compound 30] | ++++ (>=70% = ++++)
11 | +++ (>50 = +++) | 50 (VLANRVAVV; listed as Homo sapiens) [compound 50] | ++++ (>=70% = ++++)
12 | +++ (>50 = +++) | 15 (YLAPENGYLMEA; listed as Homo sapiens) [compound 15] | + (<20% = +)
13 | +++ (>50 = +++) | 111 (LLDVTPKAV; listed as Homo sapiens) [compound 111] | +++ (50%-69% = +++)
14 | +++ (>50 = +++) | 14 (GLAGPVRGV; listed as Homo sapiens) [compound 14] | + (<20% = +)
